# Reference: patent US12589099B2 (priority 2021, dated 2026)
# Tests used:
# [1] = tested on: moderate traumatic brain injury (TBI) induced by controlled cortical impact (CCI); assay: Modified neurological severity score (mNSS) after TBI; assay type: in vivo, male Wistar rats
# Excerpt: (§1) Young adult (2-3 months) male Wistar rats were subjected to a moderate traumatic brain injury (TBI) induced by controlled cortical impact (CCI). Animal models of TBI including the CCI model and functional tests have been described in detail in peer reviewed publications (Xiong et al., 2013, Nat Rev Neurosci.; Zhang et al., 2016, J Neurosurg.; Zhang et al., 2016, Neurochem Int.; Zhang et al., 2021, J Neurotrauma). Injury consisted of a single impact at 4.0 m/sec, 2.5 mm deformation to the left parietal cortex. In addition, a group of animals was left healthy/not injured to serve as a healthy control.
# The animals were divided into 3 groups: • 1) TBI+Vehicle (purified water, n=10) • 2) TBI+ALPHA-1062 (4.5 mg/kg) (n=10) • 3) Healthy/not injured and not treated (Sham surgery) (n=10)
# The substance used in this study was ALPHA-1062 at 4.5 mg/kg. As control treatment (vehicle) purified water was administered intranasally (IN). The ALPHA-1062 and the control treatment were initiated 2 hours after injury and continued twice daily (with a 6-hour interval) for 35 consecutive days.
# In addition, neurological functional tests were performed by conducting footfault tests and observations to determine the modified neurological severity score (mNSS) at 1, 7, 14, 21, 28, 35 days after TBI (see Table 1). The mNSS is a composite score assessing motor, sensory, balance, and reflex functions. […]
# [2] = tested on: pathological p-Tau (AT8); assay: p-Tau (AT8) immunostaining 35 days post-TBI; assay type: in vivo, male Wistar rats; settings: 4.5 mg/kg IN twice daily, cortex, DG, CA3, CA1 of ipsilateral hemisphere
# Excerpt: as §1
# The substance used in this study was ALPHA-1062 at 4.5 mg/kg. […]
# Histological assessment was performed including quantitative image analysis protocols; followed by statistical analysis of the data. […]
# For cell counting and quantitation NeuN+ cells were examined in the ipsilateral cortex, DG, CA1, and CA3 regions of the ipsilateral hippocampus. […] The number of BrdU+ cells (red-fluorophore) and NeuN (green-fluorophore)/BrdU-colabeled cells (yellow after merge) were counted. […] The immune-positive cells were determined and divided by the measured areas and presented as numbers per square mm. […] Tau or p-Tau immunoreactive areas including cortex, dentate gyrus, CA3 and CA1 regions of the ipsilateral hemisphere were imaged and quantified by Image J software (NIH).
smiles,measurement,setting,value
"COc1ccc2c3c1O[C@H]1C[C@@H](OC(=O)c4ccccc4)C=C[C@@]31CCN(C)C2 [ALPHA-1062, (4aS,6R,8aS)-5,6,9,10,11,12-hexahydro-3-methoxy-11-methyl-4aH-[1]benzofuro[3a,3,2-ef][2]benzazepin-6-ol benzoate]",mNSS performance,"[1]; 4.5 mg/kg IN twice daily, from day 14 (D14) onwards, vs vehicle",statistically significantly better
same,"Modified Neurological Severity Score (mNSS), performance over VEHICLE","[1]; rats after TBI, compared to vehicle treatment",superior
same,levels of p-Tau compared to vehicle controls,[2],significantly reduced levels of p-Tau
